Reference: the supplement of paper PMC10307832

How the values were obtained:
Test in all cases: relative viability (nuclei count vs DMSO), 5 days (fraction); higher = more cells survive
[1] = compound: Cc1ccc(F)c(NC(=O)Nc2ccc(-c3cccc4[nH]nc(N)c34)cc2)c1 [Linifanib] + NC(=O)Nc1cc(-c2cccc(F)c2)sc1C(=O)N[C@H]1CCCNC1 [AZD7762] (partner 0.2 µM)
Procedure, shortened: (§1)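 Lung cancer cell lines in 1536-well plates got either a single drug or a fixed anchor-drug dose together with five library-drug doses (not always all listed) in √10 steps, by pin tool, on the day after seeding. Nuclei were counted after 5 days, and relative viability is the treated-to-vehicle ratio of nuclei counts. Values are medians of duplicate plates.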

[2] = compound: Cc1ccc(F)c(NC(=O)Nc2ccc(-c3cccc4[nH]nc(N)c34)cc2)c1 [Linifanib] + C[C@]1(O)C[C@@H](c2nc(-c3ccc4ccc(-c5ccccc5)nc4c3)c3c(N)nccn32)C1 [Linsitinib] (partner 1 µM)
Procedure, shortened: as §1

[3] = compound: Cc1ccc(F)c(NC(=O)Nc2ccc(-c3cccc4[nH]nc(N)c34)cc2)c1 [Linifanib] + O=C(CCCCCCC(=O)Nc1ccccc1)NO [Vorinostat] (partner 1 µM)
Procedure, shortened: as §1

[4] = compound: Cc1ccc(F)c(NC(=O)Nc2ccc(-c3cccc4[nH]nc(N)c34)cc2)c1 [Linifanib] + CS(=O)(=O)N1CCN(Cc2cc3nc(-c4cccc5[nH]ncc45)nc(N4CCOCC4)c3s2)CC1 [Pictilisib] (partner 1 µM)
Procedure, shortened: as §1

[5] = compound: Cc1ccc(F)c(NC(=O)Nc2ccc(-c3cccc4[nH]nc(N)c34)cc2)c1 [Linifanib] + Nc1ncn([C@H]2C[C@H](O)[C@@H](CO)O2)c(=O)n1 [Decitabine] (partner 2 µM)
Procedure, shortened: as §1

[6] = compound: Cc1ccc(F)c(NC(=O)Nc2ccc(-c3cccc4[nH]nc(N)c34)cc2)c1 [Linifanib] + Cc1nc(Nc2ncc(C(=O)Nc3c(C)cccc3Cl)s2)cc(N2CCN(CCO)CC2)n1 [Dasatinib] (partner 0.075 µM)
Procedure, shortened: as §1

Cell Line	relative viability ([1]; first compound 0.03162 µM)	relative viability ([1]; first compound 0.1 µM)	relative viability ([1]; first compound 0.3162 µM)	relative viability ([2]; first compound 0.03162 µM)	relative viability ([2]; first compound 0.1 µM)	relative viability ([2]; first compound 0.3162 µM)	relative viability ([3]; first compound 0.03162 µM)	relative viability ([3]; first compound 0.1 µM)	relative viability ([3]; first compound 0.3162 µM)	relative viability ([4]; first compound 0.03162 µM)	relative viability ([4]; first compound 0.1 µM)	relative viability ([4]; first compound 0.3162 µM)	relative viability ([5]; first compound 0.03162 µM)	relative viability ([5]; first compound 0.1 µM)	relative viability ([5]; first compound 0.3162 µM)	relative viability ([6]; first compound 0.03162 µM)	relative viability ([6]; first compound 0.1 µM)	relative viability ([6]; first compound 0.3162 µM)
PC-14	0.377	0.491	0.262	1.01	1.07	0.922	0.784	0.83	0.768	0.617	0.823	0.682	0.231	0.252	0.206	0.259	0.262	0.266
HCC-78	0.629	0.595	0.599	0.528	0.526	0.497	0.419	0.427	0.455	0.24	0.21	0.237	0.784	0.752	0.717	0.441	0.539	0.37
LU99A	0.378	0.433	0.356	0.503	0.551	0.505	0.497	0.43	0.505	0.317	0.349	0.325	0.932	1.02	0.824	0.547	0.66	0.488
PC-3 [JPC-3]	0.796	0.856	0.776	0.971	0.903	1	0.671	0.747	0.775	0.743	0.786	0.687	0.766	0.792	0.847	1.04	1.01	0.972
NCI-H358	0.667	0.495	0.574	0.691	0.738	0.693	0.72	0.723	0.803	0.407	0.37	0.32	0.231	0.218	0.213	0.175	0.204	0.205
NCI-H838	0.907	0.952	0.953	0.973	1.14	0.901	0.724	0.711	0.686	0.464	0.466	0.458	0.521	0.472	0.443	0.286	0.282	0.27
HCC-827	0.204	0.231	0.275	0.992	0.999	0.996	0.792	0.814	0.802	0.898	0.96	0.933	0.32	0.31	0.331	0.272	0.32	0.268
NCI-H2087	1.33	1.45	1.32	1.14	1.02	0.764	0.854	0.695	0.598	0.977	0.989	0.825	0.31	0.248	0.268	1.12	1.22	0.787
EMC-BAC-2	1.18	1.21	1.09	0.818	0.877	0.762	0.47	0.465	0.426	0.555	0.59	0.523	1.01	1.03	0.951	0.341	0.347	0.406
201T	0.603	0.606	0.654	1.01	1.02	1.05	1.01	0.981	1.02	0.69	0.704	0.668	0.867	0.862	0.891	0.571	0.623	0.559
RERF-LC-KJ	1.03	1.01	0.938	0.888	0.907	0.827	0.737	0.804	0.727	0.564	0.6	0.484	0.707	0.651	0.717	0.836	0.983	0.937
NCI-H2405	0.71	0.777	0.803	0.886	0.98	0.852	0.988	1.05	0.951	0.499	0.606	0.477	0.766	0.747	0.756	0.212	0.199	0.219
NCI-H1975	0.688	0.706	0.618	0.898	0.98	1.02	0.649	0.735	0.697	0.298	0.3	0.367	0.384	0.446	0.413	0.396	0.367	0.344
NCI-H1755	0.457	0.505	0.495	0.953	1.01	0.999	0.761	0.765	0.892	0.493	0.503	0.397	0.696	0.731	0.698	0.458	0.406	0.388
NCI-H596	1.16	1.28	1.15	1.08	0.993	1.06	0.604	0.624	0.689	0.378	0.375	0.446	0.915	1.01	1.06	0.58	0.612	0.671
A-427	0.735	0.823	0.779	1.1	1.11	1.08	0.884	0.86	0.918	0.796	0.724	0.711	0.583	0.612	0.579	0.715	0.835	0.798
HOP-62	0.569	0.586	0.4	1.08	0.896	0.876	0.803	0.643	0.604	0.709	0.693	0.88	0.194	0.197	0.2	0.672	0.702	0.701

Cell Line	relative viability ([1]; first compound 0.03162 µM)	relative viability ([1]; first compound 0.1 µM)	relative viability ([1]; first compound 0.3162 µM)	relative viability ([2]; first compound 0.03162 µM)	relative viability ([2]; first compound 0.1 µM)	relative viability ([2]; first compound 0.3162 µM)	relative viability ([3]; first compound 0.03162 µM)	relative viability ([3]; first compound 0.1 µM)	relative viability ([3]; first compound 0.3162 µM)	relative viability ([4]; first compound 0.03162 µM)	relative viability ([4]; first compound 0.1 µM)	relative viability ([4]; first compound 0.3162 µM)	relative viability ([5]; first compound 0.03162 µM)	relative viability ([5]; first compound 0.1 µM)	relative viability ([5]; first compound 0.3162 µM)	relative viability ([6]; first compound 0.03162 µM)	relative viability ([6]; first compound 0.1 µM)	relative viability ([6]; first compound 0.3162 µM)
NCI-H647	0.435	0.557	0.389	1.13	1.06	1.07	0.638	0.672	0.516	0.313	0.512	0.417	0.339	0.368	0.481	0.194	0.231	0.183
LCLC-97TM1	0.262	0.229	0.29	0.17	0.214	0.171	0.739	0.807	0.603	0.208	0.196	0.169	0.222	0.228	0.249	0.887	1.04	0.678
NCI-H1734	0.564	0.591	0.538	0.869	0.925	0.849	0.815	0.849	0.83	0.501	0.526	0.373	0.493	0.514	0.508	0.529	0.53	0.428
H3255	0.868	0.925	0.853	0.976	1.14	0.845	0.788	0.795	0.812	0.509	0.507	0.488	0.559	0.667	0.615	0.457	0.364	0.364
HCC-15	0.922	1.18	1.12	0.881	0.89	0.817	0.796	0.838	0.792	0.833	0.804	0.71	0.745	0.693	0.629	0.635	0.709	0.725
NCI-H2126	1.02	1.06	0.983	0.696	0.731	0.753	0.797	0.859	0.873	0.48	0.507	0.457	0.58	0.538	0.575	0.622	0.718	0.622
NCI-H1915	0.743	0.701	0.681	1.12	1.09	1.08	0.549	0.482	0.504	1.04	0.923	0.892	0.286	0.247	0.257	0.301	0.359	0.36
NCI-H441	1.03	1.23	0.958	0.528	0.731	0.547	0.626	0.81	0.658	0.493	0.519	0.479	0.264	0.291	0.253	0.646	0.705	0.639
NCI-H1437	1.01	1.22	1.13	1.03	1.14	0.814	0.851	0.918	0.819	0.529	0.495	0.471	0.62	0.573	0.571	0.375	0.407	0.378
LC-2-ad	0.871	0.878	0.804	0.691	0.851	0.766	0.83	0.7	0.73	0.379	0.57	0.437	0.759	0.799	0.836	0.618	0.871	0.489
NCI-H1666	0.941	0.854	0.833	0.66	0.869	0.803	0.996	1.01	0.97	0.492	0.419	0.402	0.856	0.691	0.698	0.856	0.833	0.779
NCI-H1993	0.974	0.894	0.831	0.749	0.691	0.788	1.08	0.958	0.825	0.838	0.77	0.963	0.631	0.654	0.59	0.683	0.551	0.681
NCI-H727	0.602	0.62	0.358	0.224	0.291	0.222	1.29	1.18	1.09	0.3	0.431	0.385	0.883	0.885	0.88	0.449	0.344	0.521
NCI-H1944	0.43	0.65	0.479	1.09	1.17	1.14	0.73	0.599	0.657	0.368	0.378	0.341	0.425	0.449	0.415	0.204	0.215	0.216
HCC-366	0.181	0.243	0.221	0.676	0.735	0.5	0.371	0.378	0.359	0.148	0.21	0.214	0.417	0.328	0.336	0.554	0.648	0.582
NCI-H460	0.614	0.555	0.562	0.714	1.05	0.773	0.713	0.877	0.596	0.397	0.448	0.317	0.492	0.583	0.475	0.577	0.6	0.508
